Source: ChEMBL document CHEMBL6071138, “Design, synthesis, anti-tumor activity and mechanism of novel PROTACs as degraders of PD-L1 and inhibitors of PD-1/PD-L1 interaction” (Bioorg Med Chem, 2024)
Activity calls are given as the source filed them. No cut-off for these calls is given here.

Tests used:
[1] = biological target: von Hippel-Lindau disease tumor suppressor/Programmed cell death 1 ligand 1 (Homo sapiens) (UniProt P40337+Q9NZQ7); experiment: PROTAC activity at VHL/PD-L1 in human HCC827 cells assessed as induction of PD-L1 protein degradation incubated for 24 hrs by Western blot analysis; type: cell-based; details: dose 0.25-10 µM
[2] = system: HCC827; experiment: Effect on PD-L1 protein expression in human HCC827 cells at 10 uM incubated for 24 hrs by Western blot analysis; type: functional, cell-based
[3] = Binding affinity to C-terminal fused with Fc region of human IgG1 recombinant human PD-L1 extracellular domain (1 to 239 residues) extracted from HEK293 cells assessed as dissociation constant by MST analysis; type: cell-free
[4] = biological target: T1, Protein cereblon/Programmed cell death 1 ligand 1 (Homo sapiens) (UniProt Q9NZQ7+Q96SW2); experiment: PROTAC activity at CRBN/PD-L1 in human HCC827 cells assessed as induction of PD-L1 protein degradation incubated for 24 hrs by Western blot analysis; type: cell-based; details: dose 0.25-10 µM
[5] = biological target: T1, Protein cereblon/Programmed cell death 1 ligand 1 (Homo sapiens); experiment: (§1) PROTAC activity at CRBN/PD-L1 in human HCC827 cells assessed as induction of PD-L1 degradation at 10 uM preincubated with MG132 for 4 hrs followed by compound addition and measured after 24 hrs by Western blotting; type: cell-based
[6] = system: Mus musculus; experiment: Immunoregulatory activity in female C57BL/6 mouse model implanted with mouse MC38 cells assessed as increase in CD8+/CD4+ ratio in lymph node at 10 to 20 mg/kg, ip administered once daily for 15 days by flow cytometric analysis; type: functional, organism-based; details: dose 10-20 mg/kg, time 15.0 day
[7] = biological target: T1, Protein cereblon/Programmed cell death 1 ligand 1 (Homo sapiens); experiment: PROTAC activity at CRBN/PD-L1 in human SK-N-AS cells assessed as induction of PD-L1 protein degradation at 0.25 to 10 uM incubated for 24 hrs by Western blot analysis; type: cell-based; details: dose 0.25-10 µM
[8] = system: Mus musculus; experiment: Immunoregulatory activity in female C57BL/6 mouse model implanted with mouse MC38 cells assessed as increase in granzyme B expression at 10 to 20 mg/kg, ip administered once daily for 15 days by hematoxylin staining based immunohistochemistry; type: functional, organism-based; details: dose 10-20 mg/kg, time 15.0 day
[9] = biological target: Protein cereblon/Programmed cell death 1 ligand 1 (Mus musculus) (UniProt Q9EP73+Q8C7D2); experiment: PROTAC activity at CRBN/PD-L1 in mouse MC38 cells assessed as induction of PD-L1 protein degradation at 0.25 to 10 uM incubated for 24 hrs by Western blot analysis; type: cell-based; details: dose 0.25-10 µM
[10] = system: Mus musculus; experiment: Immunoregulatory activity in female C57BL/6 mouse model implanted with mouse MC38 cells assessed as increase in perforin expression at 10 to 20 mg/kg, ip administered once daily for 15 days by hematoxylin staining based immunohistochemistry; type: functional, organism-based; details: dose 10-20 mg/kg, time 15.0 day
[11] = system: HCC827; experiment: Antitumor activity against human HCC827 cells co-cultured with PMA-activated human Jurkat T cells assessed as T cell mediated tumor killing by measuring survival rate at 5 uM incubated for 24 hrs by CCK8 assay relative to control; type: functional; details: read-out: Survival
[12] = system: Mus musculus; experiment: Immunoregulatory activity in female C57BL/6 mouse model implanted with mouse MC38 cells assessed as increase in CD8+/CD4+ ratio in tumor at 10 to 20 mg/kg, ip administered once daily for 15 days by flow cytometric analysis; type: functional, organism-based; details: dose 10-20 mg/kg, time 15.0 day
[13] = system: Mus musculus; experiment: In vivo PROTAC activity at CRBN/PD-L1 in female C57BL/6 mouse implanted with mouse MC38 cells assessed as decrease in PD-L1 protein expression in tumor at 10 to 20 mg/kg, ip administered once daily for 15 days by hematoxylin staining based immunohistochemistry; type: functional, organism-based; details: dose 10-20 mg/kg, time 15.0 day
[14] = biological target: T1, Protein cereblon/Programmed cell death 1 ligand 1 (Homo sapiens); experiment: PROTAC activity at CRBN/PD-L1 in human HCC827 cell cytoplasm assessed as decrease in PD-L1 expression in cytoplasm at 10 uM incubated for 24 hrs by Western blotting; type: subcellular
[15] = biological target: Programmed cell death protein 1/Programmed cell death 1 ligand 1 (Homo sapiens, UniProt Q9NZQ7); experiment: Inhibition of human PD-1/PD-L1 interaction by HTRF assay; type: protein-complex assay
[16] = biological target: T1, Protein cereblon/Programmed cell death 1 ligand 1 (Homo sapiens); experiment: PROTAC activity at CRBN/PD-L1 in human HCC827 cells assessed as induction of PD-L1 degradation at 10 uM preincubated with pomalidomide for 4 hrs followed by compound addition and measured after 24 hrs by Western blotting; type: cell-based
[17] = biological target: T1, Protein cereblon/Programmed cell death 1 ligand 1 (Homo sapiens); experiment: PROTAC activity at CRBN/PD-L1 in human HCC827 cell membrane assessed as decrease in PD-L1 expression in membrane incubated for 24 hrs by flow cytometric analysis; type: cell membranes; details: dose 2.5-10 µM
[18] = system: Mus musculus; experiment: Immunoregulatory activity in female C57BL/6 mouse model implanted with mouse MC38 cells assessed as increase in CXCL9 mRNA level in tumor at 10 to 20 mg/kg, ip administered once daily for 15 days by qPCR analysis; type: functional, organism-based; details: dose 10-20 mg/kg, time 15.0 day
[19] = biological target: T1, Protein cereblon/Programmed cell death 1 ligand 1 (Homo sapiens); experiment: PROTAC activity at CRBN/PD-L1 in human HCC827 cells assessed as induction of PD-L1 degradation at 10 uM preincubated with bafilomycin A1 for 4 hrs followed by compound addition and measured after 24 hrs by Western blotting; type: cell-based
[20] = system: Mus musculus; experiment: Immunoregulatory activity in female C57BL/6 mouse model implanted with mouse MC38 cells assessed as increase in CXCR3 mRNA level in tumor at 10 to 20 mg/kg, ip administered once daily for 15 days by qPCR analysis; type: functional, organism-based; details: dose 10-20 mg/kg, time 15.0 day
[21] = biological target: T1, Protein cereblon/Programmed cell death 1 ligand 1 (Homo sapiens); experiment: as §1, with “5-((5-((2-chloro-2'-fluoro-[1,1'-biphenyl]-3-yl)methoxy)-2-(((2-hydroxyethyl)amino)methyl)phenoxy)methyl)nicotinonitrile” for “MG132”; type: cell-based
[22] = system: Mus musculus; experiment: Immunoregulatory activity in female C57BL/6 mouse model implanted with mouse MC38 cells assessed as increase in CXCL10 mRNA level in tumor at 10 to 20 mg/kg, ip administered once daily for 15 days by qPCR analysis; type: functional, organism-based; details: dose 10-20 mg/kg, time 15.0 day
[23] = biological target: T1, Protein cereblon/Programmed cell death 1 ligand 1 (Homo sapiens); experiment: PROTAC activity at CRBN/PD-L1 in human HCC827 cells assessed as induction of PD-L1 internalization at cell membrane by measuring decrease in fluorescence intensity of cell membrane at 10 uM incubated for 12 to 24 hrs by DAPI immunostaining based confocal scanning microscopic analysis; details: time 12-24 hrs
[24] = biological target: T1, Protein cereblon/Programmed cell death 1 ligand 1 (Homo sapiens); experiment: PROTAC activity at CRBN/PD-L1 in human HCC827 cell membrane assessed as decrease in PD-L1 expression in membrane at 10 uM incubated for 24 hrs by Western blotting; type: cell membranes
[25] = system: MC-38; experiment: Antitumor activity against mouse MC38 cells implanted in female C57BL/6 mouse model assessed as tumor growth inhibition at 20 mg/kg, ip administered once daily for 15 days relative to control; type: functional; details: MC-38, 360 h, time 15 day, read-out: TGI
[26] = biological target: T1, Protein cereblon/Programmed cell death 1 ligand 1 (Homo sapiens); experiment: PROTAC activity at CRBN/PD-L1 in human HCC827 cells assessed as induction of PD-L1 internalization at cell membrane by measuring increase in fluorescence intensity around nucleus at 10 uM incubated for 12 hrs by DAPI immunostaining based confocal scanning microscopic analysis
[27] = biological target: T1, Protein cereblon/Programmed cell death 1 ligand 1 (Homo sapiens); experiment: PROTAC activity at CRBN/PD-L1 in human 786-0 cells assessed as induction of PD-L1 protein degradation at 0.25 to 10 uM incubated for 24 hrs by Western blot analysis; type: cell-based; details: dose 0.25-10 µM
[28] = Toxicity in female C57BL/6 mouse implanted with mouse MC38 cells assessed as effect on body weight at 10 to 20 mg/kg, ip administered once daily for 15 days; type: organism-based; details: in vivo, 360 h, dose 10-20 mg/kg, time 15 day
[29] = biological target: T1, Protein cereblon/Programmed cell death 1 ligand 1 (Homo sapiens); experiment: PROTAC activity at CRBN/PD-L1 in human HCC827 cells assessed as induction of PD-L1 protein degradation at 10 uM measured within 24 hrs by Western blot analysis relative to control; type: cell-based
[30] = system: MC-38; experiment: Antitumor activity against mouse MC38 cells implanted in female C57BL/6 mouse model assessed as tumor growth inhibition at 10 mg/kg, ip administered once daily for 15 days relative to control; type: functional; details: MC-38, 360 h, time 15 day, read-out: TGI
[31] = system: HCC827; experiment: Antitumor activity against human HCC827 cells co-cultured with PMA-activated human Jurkat T cells assessed as T cell mediated tumor killing by measuring survival rate at 10 uM incubated for 24 hrs by CCK8 assay relative to control; type: functional; details: read-out: Survival
[32] = biological target: T1, Protein cereblon/Programmed cell death 1 ligand 1 (Homo sapiens); experiment: PROTAC activity at CRBN/PD-L1 in human HCC827 cells assessed as induction of PD-L1 protein degradation at 20 uM measured within 24 hrs by Western blot analysis relative to control; type: cell-based

T1 sequence (Q96SW2 whole entry, looked up): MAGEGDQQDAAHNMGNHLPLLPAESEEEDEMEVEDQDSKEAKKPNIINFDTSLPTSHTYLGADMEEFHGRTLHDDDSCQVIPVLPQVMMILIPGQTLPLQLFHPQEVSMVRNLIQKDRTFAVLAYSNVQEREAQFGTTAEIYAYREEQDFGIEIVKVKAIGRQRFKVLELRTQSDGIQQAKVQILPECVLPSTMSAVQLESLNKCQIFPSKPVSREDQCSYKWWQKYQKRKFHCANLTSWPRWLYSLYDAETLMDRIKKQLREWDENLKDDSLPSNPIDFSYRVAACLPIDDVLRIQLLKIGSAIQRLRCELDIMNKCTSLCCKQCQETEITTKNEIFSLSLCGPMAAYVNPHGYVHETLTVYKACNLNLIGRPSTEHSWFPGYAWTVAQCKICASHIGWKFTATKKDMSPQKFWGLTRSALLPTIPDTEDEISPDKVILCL
T1 sequence (Q9NZQ7 whole entry, looked up): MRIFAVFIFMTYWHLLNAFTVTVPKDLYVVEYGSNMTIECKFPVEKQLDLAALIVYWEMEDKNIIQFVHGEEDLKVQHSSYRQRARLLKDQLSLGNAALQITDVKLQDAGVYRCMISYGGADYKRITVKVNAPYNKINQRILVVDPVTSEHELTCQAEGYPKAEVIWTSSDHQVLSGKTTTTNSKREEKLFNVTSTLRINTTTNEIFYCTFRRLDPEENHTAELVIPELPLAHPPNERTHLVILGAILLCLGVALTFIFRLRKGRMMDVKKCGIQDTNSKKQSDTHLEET
Chain of von Hippel-Lindau disease tumor suppressor/Programmed cell death 1 ligand 1 (Homo sapiens) (P40337 whole entry, looked up): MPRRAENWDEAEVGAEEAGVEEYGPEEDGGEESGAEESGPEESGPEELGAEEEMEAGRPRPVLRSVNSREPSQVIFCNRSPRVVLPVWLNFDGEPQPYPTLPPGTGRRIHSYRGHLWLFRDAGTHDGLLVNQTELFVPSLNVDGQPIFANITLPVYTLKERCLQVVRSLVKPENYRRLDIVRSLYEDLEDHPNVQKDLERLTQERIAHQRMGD
Chain of von Hippel-Lindau disease tumor suppressor/Programmed cell death 1 ligand 1 (Homo sapiens) (Q9NZQ7 whole entry, looked up): as the sequence (Q9NZQ7 whole entry, looked up) above
Chain of Protein cereblon/Programmed cell death 1 ligand 1 (Mus musculus) (Q8C7D2 whole entry partner): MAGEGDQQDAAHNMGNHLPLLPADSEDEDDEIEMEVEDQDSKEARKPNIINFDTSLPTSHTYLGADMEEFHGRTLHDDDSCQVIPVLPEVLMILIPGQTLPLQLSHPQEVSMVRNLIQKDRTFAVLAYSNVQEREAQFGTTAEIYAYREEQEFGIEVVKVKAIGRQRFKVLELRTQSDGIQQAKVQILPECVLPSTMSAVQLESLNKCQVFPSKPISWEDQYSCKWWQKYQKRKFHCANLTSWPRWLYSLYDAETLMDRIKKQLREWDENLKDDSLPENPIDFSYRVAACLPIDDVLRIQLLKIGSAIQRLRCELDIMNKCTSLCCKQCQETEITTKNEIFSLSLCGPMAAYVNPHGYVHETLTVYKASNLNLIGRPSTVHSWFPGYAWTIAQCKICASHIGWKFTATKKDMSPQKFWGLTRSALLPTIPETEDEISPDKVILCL
Chain of Protein cereblon/Programmed cell death 1 ligand 1 (Mus musculus) (Q9EP73 19-290 limits assumed): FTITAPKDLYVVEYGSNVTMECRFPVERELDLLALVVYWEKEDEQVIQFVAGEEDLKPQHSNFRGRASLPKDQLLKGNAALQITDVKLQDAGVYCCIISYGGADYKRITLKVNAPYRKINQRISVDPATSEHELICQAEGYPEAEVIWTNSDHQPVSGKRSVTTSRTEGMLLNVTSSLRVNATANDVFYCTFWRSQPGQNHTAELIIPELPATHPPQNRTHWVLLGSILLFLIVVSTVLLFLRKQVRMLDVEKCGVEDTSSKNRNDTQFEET
Chain of Programmed cell death protein 1/Programmed cell death 1 ligand 1 (Q15116 whole entry): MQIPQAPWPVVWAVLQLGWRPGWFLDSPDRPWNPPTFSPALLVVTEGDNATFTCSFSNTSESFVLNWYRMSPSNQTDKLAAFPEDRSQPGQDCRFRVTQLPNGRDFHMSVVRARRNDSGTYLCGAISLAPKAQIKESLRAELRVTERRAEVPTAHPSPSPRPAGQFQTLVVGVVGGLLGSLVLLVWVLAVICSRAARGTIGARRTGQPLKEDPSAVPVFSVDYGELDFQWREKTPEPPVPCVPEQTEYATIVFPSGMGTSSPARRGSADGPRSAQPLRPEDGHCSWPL
Chain of Programmed cell death protein 1/Programmed cell death 1 ligand 1 (Q9NZQ7 whole entry): as the sequence (Q9NZQ7 whole entry, looked up) above

## Cc1ncsc1-c1ccc([C@H](C)NC(=O)[C@@H]2C[C@@H](O)CN2C(=O)[C@@H](NC(=O)CCOCCOCCOCCOCCNCc2ccc(OCc3cccc(-c4ccccc4F)c3Cl)cc2OCc2cncc(C#N)c2)C(C)(C)C)cc1
[1]
  Activity: Dose-Dependent Effect

## N#Cc1cncc(COc2cc(OCc3cccc(-c4ccccc4F)c3Cl)ccc2CNCCO)c1
[2]
  Activity: inactive
[3]
  Kd: 20.2 nM

## Cc1ncsc1-c1ccc([C@H](C)NC(=O)[C@@H]2C[C@@H](O)CN2C(=O)[C@@H](NC(=O)CCCNCc2ccc(OCc3cccc(-c4ccccc4F)c3Cl)cc2OCc2cncc(C#N)c2)C(C)(C)C)cc1
[1]
  Activity: Dose-Dependent Effect

## N#Cc1cncc(COc2cc(OCc3cccc(-c4ccccc4F)c3Cl)ccc2CNCCCCCCCCNc2cccc3c2C(=O)N(C2CCC(=O)NC2=O)C3=O)c1 (stereo not given)
[4]
  Activity: Dose-Dependent Effect

## N#Cc1cncc(COc2cc(OCc3cccc(-c4ccccc4F)c3Cl)ccc2CNCCCCCNc2cccc3c2C(=O)N(C2CCC(=O)NC2=O)C3=O)c1 (stereo not given)
[4]
  Activity: Dose-Dependent Effect

## N#Cc1cncc(COc2cc(OCc3cccc(-c4ccccc4F)c3Cl)ccc2CNCc2cn(CCCCCC(=O)Nc3cccc4c3CN(C3CCC(=O)NC3=O)C4=O)nn2)c1 (stereo not given)
[4]
  Activity: Dose-Dependent Effect

## N#Cc1cncc(COc2cc(OCC3C=CC=C(c4ccccc4F)C3Cl)ccc2CNCCOCCOCCOCCOCCOCCOCCC(=O)Nc2cccc3c2CN(C2CCC(=O)NC2=O)C3=O)c1 (stereo not given)
[4]
  Activity: Dose-Dependent Effect

## Nc1cccc2c1C(=O)N(C1CCC(=O)NC1=O)C2=O (stereo not given)
[2]
  Activity: inactive

## N#Cc1cncc(COc2cc(OCc3cccc(-c4ccccc4F)c3Cl)ccc2CNCCOCCOCCOCCNc2cccc3c2C(=O)N(C2CCC(=O)NC2=O)C3=O)c1 (stereo not given)
[5]
  Activity: inactive
[6]
  Activity: Active
[7]
  Activity: Active
[8]
  Activity: Active
[9]
  Activity: Active
[10]
  Activity: Active
[11]
  viability at 5 µM: 73.2%
[12]
  Activity: Active
[13]
  Activity: Active
[14]
  Activity: Active
[15]
  IC50: 219 nM
[16]
  Activity: inactive
[17]
  Activity: Dose-Dependent Effect
[18]
  Activity: Active
[19]
  Activity: inactive
[20]
  Activity: Active
[21]
  Activity: inactive
[22]
  Activity: Active
[23]
  Activity: Active
[24]
  Activity: Active
[25]
  inhibition in vivo at 20 mg/kg: 54.9%
[26]
  Activity: Active
[27]
  Activity: Active
[4]
  Activity: Dose-Dependent Effect
[28]
  Activity: Non-Toxic
[3]
  Kd: 251 nM
[29]
  Activity: 58%
[30]
  inhibition in vivo at 10 mg/kg: 34.6%

## N#Cc1cncc(COc2cc(OCc3cccc(-c4ccccc4F)c3Cl)ccc2CNCCOCCOCCNc2cccc3c2C(=O)N(C2CCC(=O)NC2=O)C3=O)c1 (stereo not given)
[5]
  Activity: inactive
[6]
  Activity: Active
[7]
  Activity: Active
[8]
  Activity: Active
[9]
  Activity: Active
[10]
  Activity: Active
[12]
  Activity: Active
[13]
  Activity: Active
[31]
  viability at 10 µM: 50.6%
[14]
  Activity: Active
[15]
  IC50: 197 nM
[16]
  Activity: inactive
[17]
  Activity: Dose-Dependent Effect
[18]
  Activity: Active
[19]
  Activity: inactive
[20]
  Activity: Active
[21]
  Activity: inactive
[22]
  Activity: Active
[23]
  Activity: Active
[32]
  Activity: 60.9%
[24]
  Activity: Active
[25]
  inhibition in vivo at 20 mg/kg: 57.4%
[26]
  Activity: Active
[27]
  Activity: Active
[4]
  Activity: Dose-Dependent Effect
[28]
  Activity: Non-Toxic
[3]
  Kd: 301 nM
[30]
  inhibition in vivo at 10 mg/kg: 48.7%
